Test results reported in ChEMBL document CHEMBL6078713, “Synthesis and mechanistic studies of 4-aminoquinoline-Isatin molecular hybrids and Schiff's bases as promising antimicrobial agents” (Eur J Med Chem, 2025).
≈ marks a conversion by molar mass, not a printed value.

Tests used:
[1] = system: Escherichia coli; experiment: Antibacterial activity against Escherichia coli MTCC 443 assessed as diameter of zone of inhibition at 500 ug/ml by agar disk diffusion method; format: functional; conditions: read-out: DIZ
[2] = system: Bacillus subtilis; experiment: Antibacterial activity against Bacillus subtilis MTCC 736 assessed as diameter of zone of inhibition at 500 ug/ml by agar disk diffusion method; format: functional; conditions: read-out: DIZ
[3] = system: Enterococcus faecalis; experiment: Antibacterial activity against Enterococcus faecalis MTCC 439 assessed as diameter of zone of inhibition at 500 ug/ml by agar disk diffusion method; format: functional; conditions: read-out: DIZ
[4] = system: Staphylococcus aureus; experiment: Antibacterial activity against Staphylococcus aureus MTCC 902 assessed as diameter of zone of inhibition at 500 ug/ml by agar disk diffusion method; format: functional; conditions: read-out: DIZ
[5] = system: Pseudomonas aeruginosa; experiment: Antibacterial activity against Pseudomonas aeruginosa MTCC 2453 assessed as diameter of zone of inhibition at 500 ug/ml by agar disk diffusion method; format: functional; conditions: read-out: DIZ
[6] = system: Salmonella typhi; experiment: Antibacterial activity against Salmonella typhi assessed as diameter of zone of inhibition at 500 ug/ml by agar disk diffusion method; format: functional, Salmonella enterica subsp. enterica serovar Typhi; conditions: Salmonella enterica, read-out: DIZ
[7] = system: Escherichia coli; experiment: Antibacterial activity against Escherichia coli MTCC 443 assessed as inhibition of bacterial growth incubated overnight by serial dilution based spectrophotometer; format: functional
[8] = system: Enterococcus faecalis; experiment: Antibacterial activity against Enterococcus faecalis MTCC 439 assessed as inhibition of bacterial growth incubated overnight by serial dilution based spectrophotometer; format: functional
[9] = system: Bacillus subtilis; experiment: Antibacterial activity against Bacillus subtilis MTCC 736 assessed as inhibition of bacterial growth incubated overnight by serial dilution based spectrophotometer; format: functional
[10] = system: Staphylococcus aureus; experiment: Antibacterial activity against Staphylococcus aureus MTCC 902 assessed as inhibition of bacterial growth incubated overnight by serial dilution based spectrophotometer; format: functional
[11] = system: Pseudomonas aeruginosa; experiment: Antibacterial activity against Pseudomonas aeruginosa MTCC 2453 assessed as inhibition of bacterial growth incubated overnight by serial dilution based spectrophotometer; format: functional
[12] = system: Salmonella typhi; experiment: Antibacterial activity against Salmonella typhi assessed as inhibition of bacterial growth incubated overnight by serial dilution based spectrophotometer; format: functional, Salmonella enterica subsp. enterica serovar Typhi; conditions: Salmonella enterica
[13] = system: Escherichia coli; experiment: Bactericidal activity against Escherichia coli MTCC 443 assessed as inhibition of bacterial growth incubated overnight; format: functional
[14] = system: Enterococcus faecalis; experiment: Bactericidal activity against Enterococcus faecalis MTCC 439 assessed as inhibition of bacterial growth incubated overnight; format: functional
[15] = system: Bacillus subtilis; experiment: Bactericidal activity against Bacillus subtilis MTCC 736 assessed as inhibition of bacterial growth incubated overnight; format: functional
[16] = system: Staphylococcus aureus; experiment: Bactericidal activity against Staphylococcus aureus MTCC 902 assessed as inhibition of bacterial growth incubated overnight; format: functional
[17] = system: Pseudomonas aeruginosa; experiment: Bactericidal activity against Pseudomonas aeruginosa MTCC 2453 assessed as inhibition of bacterial growth incubated overnight; format: functional
[18] = system: Salmonella typhi; experiment: Bactericidal activity against Salmonella typhi assessed as inhibition of bacterial growth incubated overnight; format: functional, Salmonella enterica subsp. enterica serovar Typhi; conditions: Salmonella enterica
[19] = system: Escherichia coli; experiment: Ratio of MBC for antibacterial activity against Escherichia coli MTCC 443 to MIC for bactericidal activity against Escherichia coli MTCC 443; format: functional
[20] = system: Enterococcus faecalis; experiment: Ratio of MBC for antibacterial activity against Enterococcus faecalis MTCC 439 to MIC for bactericidal activity against Enterococcus faecalis MTCC 439; format: functional
[21] = system: Bacillus subtilis; experiment: Ratio of MBC for antibacterial activity against Bacillus subtilis MTCC 736 to MIC for bactericidal activity against Bacillus subtilis MTCC 736; format: functional
[22] = system: Salmonella typhi; experiment: Ratio of MBC for antibacterial activity against Salmonella typhi to MIC for bactericidal activity against Salmonella typhi; format: functional, Salmonella enterica subsp. enterica serovar Typhi
[23] = system: Staphylococcus aureus; experiment: Ratio of MBC for antibacterial activity against Staphylococcus aureus MTCC 902 to MIC for bactericidal activity against Staphylococcus aureus MTCC 902; format: functional
[24] = system: Pseudomonas aeruginosa; experiment: Ratio of MBC for antibacterial activity against Pseudomonas aeruginosa MTCC 2453 to MIC for bactericidal activity against Pseudomonas aeruginosa MTCC 2453; format: functional

| SMILES | zone of inhibition at 500 µg/mL [1] [mm] | zone of inhibition at 500 µg/mL [2] [mm] | zone of inhibition at 500 µg/mL [3] [mm] | zone of inhibition at 500 µg/mL [4] [mm] | zone of inhibition at 500 µg/mL [5] [mm] | zone of inhibition at 500 µg/mL [6] [mm] | further results |
| --- | --- | --- | --- | --- | --- | --- | --- |
| O=C1Nc2ccccc2/C1=N/CCNc1ccnc2cc(Cl)ccc12 | 11 | 10 |  |  |  |  |  |
| FC(F)(F)c1ccc(/C=N/CCNc2ccnc3cc(Cl)ccc23)cc1 | 10 | 7 | 8 | 7 | 8 | 9 |  |
| O=C1Nc2cc(F)ccc2/C1=N/CCNc1ccnc2cc(Cl)ccc12 |  |  |  | 7 |  | 7 |  |
| Oc1ccc(/C=N/CCNc2ccnc3cc(Cl)ccc23)cc1 | 10 | 8 | 6 | 9 | 10 | 8 |  |
| COc1ccc(/C=N/CCNc2ccnc3cc(Cl)ccc23)cc1OC | 8 | 7 | 7 | 8 | 7 | 8 |  |
| O=C1Nc2ccc(Br)cc2/C1=N/CCNc1ccnc2cc(Cl)ccc12 | 11 |  |  |  |  | 11 |  |
| O=[N+]([O-])c1ccc(/C=N/CCNc2ccnc3cc(Cl)ccc23)cc1 | 12 | 8 | 9 | 10 | 8 | 10 | MIC [7]: 256 µg/mL (≈ 722 µM); MIC [8]: 256 µg/mL (≈ 722 µM); MIC [9]: 512 µg/mL (≈ 1440 µM); MIC [10]: 256 µg/mL (≈ 722 µM); MIC [11]: 512 µg/mL (≈ 1440 µM); MIC [12]: 256 µg/mL (≈ 722 µM); MBC [13]: 256 µg/mL (≈ 722 µM); MBC [14]: 256 µg/mL (≈ 722 µM); MBC [15]: 512 µg/mL (≈ 1440 µM); MBC [16]: > 512 µg/mL; MBC [17]: > 512 µg/mL; MBC [18]: 256 µg/mL (≈ 722 µM); Ratio [19]: 1; Ratio [20]: 1; Ratio [21]: 1; Ratio [22]: 1 |
| Clc1ccc2c(NCC/N=C/c3ccccc3)ccnc2c1 | 10 | 7 | 8 | 8 | 8 | 6 |  |
| Clc1ccc2c(NCC/N=C/c3ccccc3Cl)ccnc2c1 | 8 | 8 | 9 | 7 | 9 | 9 |  |
| COc1ccc2c(c1)NC(=O)/C2=N\CCNc1ccnc2cc(Cl)ccc12 | 16 |  |  |  |  | 10 |  |
| Oc1cccc(/C=N/CCNc2ccnc3cc(Cl)ccc23)c1 | 13 | 9 | 10 | 10 | 8 | 10 | MIC [7]: 256 µg/mL (≈ 786 µM); MIC [8]: 512 µg/mL (≈ 1570 µM); MIC [9]: > 512 µg/mL; MIC [10]: 512 µg/mL (≈ 1570 µM); MIC [11]: > 512 µg/mL; MIC [12]: 256 µg/mL (≈ 786 µM); MBC [13]: 256 µg/mL (≈ 786 µM); MBC [14]: 512 µg/mL (≈ 1570 µM); MBC [16]: > 512 µg/mL; MBC [18]: 256 µg/mL (≈ 786 µM); Ratio [19]: 1; Ratio [20]: 1; Ratio [22]: 1 |
| Cc1cccc2c1NC(=O)/C2=N\CCNc1ccnc2cc(Cl)ccc12 | 11 | 12 |  | 11 | 12 |  | MIC [7]: 256 µg/mL (≈ 702 µM); MIC [8]: > 512 µg/mL; MIC [9]: 256 µg/mL (≈ 702 µM); MIC [10]: 256 µg/mL (≈ 702 µM); MIC [11]: 256 µg/mL (≈ 702 µM); MIC [12]: > 512 µg/mL; MBC [13]: > 512 µg/mL; MBC [15]: > 512 µg/mL; MBC [16]: 256 µg/mL (≈ 702 µM); MBC [17]: > 512 µg/mL; Ratio [23]: 1 |
| COc1ccc(/C=N/CCNc2ccnc3cc(Cl)ccc23)cc1 | 9 | 6 | 8 | 8 | 8 | 9 |  |
| O=C1Nc2c(cccc2[N+](=O)[O-])/C1=N/CCNc1ccnc2cc(Cl)ccc12 |  | 11 |  | 8 |  |  |  |
| Cc1ccc(/C=N/CCNc2ccnc3cc(Cl)ccc23)cc1 | 8 |  | 6 | 6 | 8 | 6 |  |
| O=[N+]([O-])c1cccc(/C=N/CCNc2ccnc3cc(Cl)ccc23)c1 | 9 | 6 | 8 | 8 | 6 | 9 |  |
| Clc1ccc2c(NCC/N=C/c3ccc(Br)cc3)ccnc2c1 |  |  | 8 |  |  |  |  |
| COc1ccc2c(c1)/C(=N/CCNc1ccnc3cc(Cl)ccc13)C(=O)N2 |  |  | 10 |  | 11 |  |  |
| Clc1ccc2c(NCC/N=C/c3c[nH]c4ccccc34)ccnc2c1 | 10 | 8 | 9 | 8 | 7 | 9 |  |
| CN(C)c1ccc(/C=N/CCNc2ccnc3cc(Cl)ccc23)cc1 | 10 | 8 | 8 | 9 | 7 | 7 |  |
| Clc1ccc2c(NCC/N=C/c3ccccn3)ccnc2c1 | 11 | 9 | 8 | 8 | 9 | 7 | MIC [7]: 256 µg/mL (≈ 824 µM); MIC [8]: 512 µg/mL (≈ 1650 µM); MIC [9]: 512 µg/mL (≈ 1650 µM); MIC [10]: 512 µg/mL (≈ 1650 µM); MIC [11]: 512 µg/mL (≈ 1650 µM); MIC [12]: > 512 µg/mL; MBC [13]: 512 µg/mL (≈ 1650 µM); MBC [14]: 512 µg/mL (≈ 1650 µM); MBC [15]: > 512 µg/mL; MBC [16]: > 512 µg/mL; MBC [17]: 512 µg/mL (≈ 1650 µM); Ratio [19]: 2; Ratio [20]: 1; Ratio [24]: 1 |
| CC(C)c1ccc(/C=N/CCNc2ccnc3cc(Cl)ccc23)cc1 | 10 | 8 | 7 | 9 | 12 | 10 | MIC [7]: 256 µg/mL (≈ 728 µM); MIC [8]: > 512 µg/mL; MIC [9]: > 512 µg/mL; MIC [10]: 512 µg/mL (≈ 1460 µM); MIC [11]: 256 µg/mL (≈ 728 µM); MIC [12]: 256 µg/mL (≈ 728 µM); MBC [13]: 256 µg/mL (≈ 728 µM); MBC [16]: > 512 µg/mL; MBC [17]: > 512 µg/mL; MBC [18]: 256 µg/mL (≈ 728 µM); Ratio [19]: 1; Ratio [22]: 1 |
| Cc1cc(C)c2c(c1)/C(=N/CCNc1ccnc3cc(Cl)ccc13)C(=O)N2 | 11 |  |  | 6 |  |  |  |
| Clc1ccc2c(NCC/N=C/c3cccs3)ccnc2c1 | 9 | 8 | 8 | 7 | 6 | 8 |  |
| Clc1ccc2c(NCC/N=C/c3ccc[nH]3)ccnc2c1 | 9 | 9 | 8 | 10 | 7 | 9 | MIC [7]: 256 µg/mL (≈ 857 µM); MIC [8]: 512 µg/mL (≈ 1710 µM); MIC [9]: 512 µg/mL (≈ 1710 µM); MIC [10]: 512 µg/mL (≈ 1710 µM); MIC [11]: > 512 µg/mL; MIC [12]: > 512 µg/mL; MBC [13]: 512 µg/mL (≈ 1710 µM); MBC [14]: 512 µg/mL (≈ 1710 µM); MBC [15]: 512 µg/mL (≈ 1710 µM); MBC [16]: > 512 µg/mL; Ratio [19]: 2; Ratio [20]: 1; Ratio [21]: 1 |
| Clc1ccc(/C=N/CCNc2ccnc3cc(Cl)ccc23)cc1 | 6 | 7 | 6 |  | 7 | 6 |  |
| COc1cc(/C=N/CCNc2ccnc3cc(Cl)ccc23)ccc1O | 9 |  | 7 | 6 | 7 | 6 |  |
